Data from patent publication US10081614B2, “Bis(sulfonamide) derivatives and their use as mPGES inhibitors” (Acturum Real Estate AB, priority 2014, dated 2018).
pIC50: −log10 of the molar value.

Key:
[1] = system: mPGES-1-dependent PGE2 production in human blood; assay: Whole blood assay (LPS-stimulated human blood, PGE2 production); format: cell-based; details: 0.1 μg/ml LPS, 16 hours at 37° C., PGE2 by HTRF, read-out: hWBA
Excerpt: The whole blood assay [described by Patrignani, P. et al, Journal of Pharmacology and Experimental Therapeutics, 1994, vol. 271, pp 1705-1712] was used as the whole cell assay for testing the compounds. Whole blood provides a protein and cell rich environment for the study of biochemical efficacy of anti-inflammatory compounds, such as prostaglandin synthase inhibitors. To study the inhibitory activities of these compounds, human blood was stimulated with lipopolysaccharide (LPS) for typically 16 hours to induce mPGES-1 expression, after which the concentration of produced PGE2 was measured by competitive-immuno assay (homogeneous time-resolved fluorescence, HTRF) as read out for effectiveness against mPGES-1-dependent PGE2 production.
Human blood collected from human volunteers in heparinized tubes was incubated with 100 μM acetyl salicylic acid, in order to inhibit the constitutively expressed cyclooxygenase (COX)-1/COX-2 enzymes, and then stimulated with 0.1 μg/ml LPS to induce the expression of enzymes along the COX-2 pathway, e.g. COX-2 and mPGES-1. 100 μL of this blood was added to the wells of a 384-well plate containing 1 μL DMSO solutions of compounds typically in the final concentration range 316 μM to 0.01 μM. Naproxen was used as reference compound. The mix was incubated at 37° C. for 16 hours. Plasma was harvested by centrifugation and stored at −70° C. until further analysis of PGE2 levels. For the calculations, the 0%-activity value was represented by blood treated with acetyl salicylic acid, LPS and the reference compound (1 mM Naproxen). The 100%-activity value was represented by blood treated with aspirin, LPS and DMSO. [Reference: Patrignani, P. et al, Journal of Pharmacology and Experimental Therapeutics, 1994, vol. 271, pp 1705-1712]. The PGE2 formed was quantified, after dilution in a weak potassium phosphate buffer (50 mM, pH 6.8) containing 0.2% BSA (w/v), by use of a commercial HTRF based kit (catalogue #62PG2PEC or #62P2APEC from Cisbio International). IC50 values were then determined using standard procedures.

human mPGES-1 = target: T1, human mPGES-1 (Homo sapiens, UniProt O14684); assay: Microsomal prostaglandin E synthase biochemical assay; details: microsomes containing human mPGES-1, PGH2 10.8 μM, GSH 2.5 mM, pH 6.8; average of at least n=2
T1 construct: host or cells: microsomes
T1 sequence (O14684 1-152): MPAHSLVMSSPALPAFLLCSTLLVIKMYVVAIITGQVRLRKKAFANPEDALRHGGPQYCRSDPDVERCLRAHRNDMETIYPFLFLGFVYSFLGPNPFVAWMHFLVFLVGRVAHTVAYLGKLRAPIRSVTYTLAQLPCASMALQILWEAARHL
Description: Compounds were tested as inhibitors of microsomal prostaglandin E synthase activity in microsomal prostaglandin E synthase assays and whole cell assays. These assays measure prostaglandin E2 (PGE2) synthesis, which is taken as a measure of prostaglandin E synthase activity. Microsomal prostaglandin E synthase biochemical assays used microsomal prostaglandin E synthase-1 in microsomal preparations. The source of the microsomes can be for example interleukin-1β-stimulated human A549 cells (which express human mPGES-1) or Sf9 cells transfected with plasmids encoding human mPGES-1 cDNA.
A solution of test compound was added to a diluted microsome preparation containing human mPGES-1 and pre-incubated for 15 minutes in potassium phosphate buffer pH 6.8 with cofactor glutathione (GSH). Corresponding solutions without test compound were used as positive controls, and corresponding solutions without test compound and without microsomes were used as negative controls. The enzymatic reaction was then started by addition of the substrate PGH2 in an organic solution (dry acetonitrile).
The typical reaction conditions of the enzymatic reaction were thus: Test compound: ranging from 60 μM to 0.002 μM, or zero in positive and negative controls; potassium phosphate buffer pH 6.8:50 mM; GSH: 2.5 mM; mPGES-1-containing microsomes: 2 μg/mL (sample and positive controls) or 0 μg/mL (negative control); PGH2: 10.8 μM; Acetonitrile: 7.7% (v/v); DMSO: 0.6% (v/v). The reaction was stopped after one minute by adding an acidic solution (pH 1.9) of ferric chloride and citrate (final concentrations 7 mM and 47 mM respectively), by which the PGH2 was sequestered (the PGH2 is reduced to mainly 12-hydroxy heptadecatrineoic acid (12-HHT) which is not detected by the subsequent PGE2 detection step). The resulting solution was then pH neutralized by addition of potassium phosphate buffer, prior to diluting an aliquot of the resulting solution in a weak potassium phosphate buffer (50 mM, pH 6.8) containing 0.2% BSA (w/v). [Adapted from Jacobsson et al., Proc. Natl. Acad. Sci. USA, 1999, vol. 96, pp. 7220-7225] The PGE2 formed was quantified by use of a commercial HTRF based kit (catalogue #62PG2PEC or #62P2APEC from Cisbio International). 100% activity was defined as the PGE2 production in positive controls subtracted by the PGE2 production in the negative controls. IC50 values were then determined using standard procedures.
The potency is expressed as IC50 and the value indicated is an average of at least n=2.

| Compound | pIC50 [1] | pIC50 (human mPGES-1) |
| --- | --- | --- |
| CC(C)(C)C#Cc1ccc(CCS(=O)(=O)Nc2ccccc2S(N)(=O)=O)c(OCC2CCOCC2)c1 [Example 15, 2-[({2-[4-(3,3-Dimethylbut-1-yn-1-yl)-2-(tetrahydro-2H-pyran-4-ylmethoxy)phenyl]ethyl}sulfonyl)amino]benzenesulfonamide] | 7.77 | > 8.60 |
| NS(=O)(=O)c1ccccc1NS(=O)(=O)CCc1ccc(F)cc1OCC1CCOCC1 [Example 5, 2-[({2-[4-Fluoro-2-(tetrahydro-2H-pyran-4-ylmethoxy)phenyl]ethyl}sulfonyl)amino]benzenesulfonamide] | 7.05 | 7.80 |
| Cc1ccc(CCS(=O)(=O)Nc2ccccc2S(N)(=O)=O)c(OCC2CCOCC2)c1 [Example 4, 2-[({2-[4-methyl-2-(tetrahydro-2H-pyran-4-ylmethoxy)phenyl]ethyl}sulfonyl)amino]benzenesulfonamide] | 6.81 | 7.82 |
| NS(=O)(=O)c1ccccc1NS(=O)(=O)CCc1ccc(F)cc1OCC1CCC(F)(F)CC1 [Example 8, 2-{[(2-{2-[(4,4-Difluorocyclohexyl)methoxy]-4-fluorophenyl}ethyl)sulfonyl]amino}benzenesulfonamide] | 6.83 | 8.12 |
| Cc1ccc(C#Cc2ccc(CCS(=O)(=O)Nc3ccccc3S(N)(=O)=O)c(OCC3CCOCC3)c2)cc1 [Example 14, 2-{[(2-{4-[(4-Methylphenyl)ethynyl]-2-(tetrahydro-2H-pyran-4-ylmethoxy)phenyl}ethyl)sulfonyl]amino}benzenesulfonamide] | 9.01 | 8.68 |
| NS(=O)(=O)c1cc(CO)ccc1NS(=O)(=O)CCc1ccc(Cl)cc1OCC1CCOCC1 [Example 16, 2-[({2-[4-chloro-2-(tetrahydro-2H-pyran-4-ylmethoxy)phenyl]ethyl}sulfonyl)amino]-5-(hydroxymethyl)benzenesulfonamide] | 7.54 | 8.25 |
| NS(=O)(=O)c1ccccc1NS(=O)(=O)CCc1ccc(Cl)cc1OCC1CCC(F)(F)CC1 [Example 6, 2-{[(2-{4-Chloro-2-[(4,4-difluorocyclohexyl)methoxy]phenyl}ethyl)sulfonyl]amino}benzenesulfonamide] | 7.94 | 8.57 |
| NS(=O)(=O)c1ccccc1NS(=O)(=O)CCc1ccc(C(F)(F)F)cc1OCC1CCOCC1 [Example 3, 2-[({2-[2-(Tetrahydro-2H-pyran-4-ylmethoxy)-4-(trifluoromethyl)phenyl]ethyl}sulfonyl)amino]benzenesulfonamide] | 7.58 | 8.40 |
| NS(=O)(=O)c1ccccc1NS(=O)(=O)CCc1ccc(C#CC2CC2)cc1OCC1CCOCC1 [Example 10, 2-[({2-[4-(Cyclopropylethynyl)-2-(tetrahydro-2H-pyran-4-ylmethoxy)phenyl]ethyl}sulfonyl)amino]benzenesulfonamide] | 8.10 | > 8.66 |
| NS(=O)(=O)c1ccccc1NS(=O)(=O)CCc1ccc(C#CC2CCC2)cc1OCC1CCOCC1 [Example 12, 2-[({2-[4-(cyclobutylethynyl)-2-(tetrahydro-2H-pyran-4-ylmethoxy)phenyl]ethyl}sulfonyl)amino]benzenesulfonamide] | 8.74 | > 8.64 |
| CC(C)C#Cc1ccc(CCS(=O)(=O)Nc2ccccc2S(N)(=O)=O)c(OCC2CCOCC2)c1 [Example 13, 2-[({2-[4-(3-methylbut-1-yn-1-yl)-2-(tetrahydro-2H-pyran-4-ylmethoxy)phenyl]ethyl}sulfonyl)amino]benzenesulfonamide] | 8.73 | 8.47 |
| NS(=O)(=O)c1cc(CO)ccc1NS(=O)(=O)CCc1ccc(F)cc1OCC1CCOCC1 [Example 17, 2-[({2-[4-fluoro-2-(tetrahydro-2H-pyran-4-ylmethoxy)phenyl]ethyl}sulfonyl)amino]-5-(hydroxymethyl)benzenesulfonamide] | 6.67 | 7.71 |
| Cc1ccc(CCS(=O)(=O)Nc2ccccc2S(N)(=O)=O)c(OCC2CCC(F)(F)CC2)c1 [Example 7, 2-{[(2-{2-[(4,4-Difluorocyclohexyl)methoxy]-4-methylphenyl}ethyl)sulfonyl]amino}benzenesulfonamide] | 7.27 | 8.14 |
| NS(=O)(=O)c1ccccc1NS(=O)(=O)CCc1ccc(C#CC2CCCC2)cc1OCC1CCOCC1 [Example 11, 2-[({2-[4-(Cyclopentylethynyl)-2-(tetrahydro-2H-pyran-4-ylmethoxy)phenyl]ethyl}sulfonyl)amino]benzenesulfonamide] | 9.01 | 8.68 |
| NS(=O)(=O)c1ccccc1NS(=O)(=O)CCc1ccc(Br)cc1OCC1CCOCC1 [Example 1, 2-[({2-[4-Bromo-2-(tetrahydro-2H-pyran-4-ylmethoxy)phenyl]ethyl}sulfonyl)amino]benzenesulfonamide] | 7.19 | 8.47 |
| NS(=O)(=O)c1ccccc1NS(=O)(=O)CCc1ccc(C#Cc2ccccc2)cc1OCC1CCOCC1 [Example 9, 2-[({2-[4-(Phenylethynyl)-2-(tetrahydro-2H-pyran-4-ylmethoxy)phenyl]ethyl}sulfonyl)amino]benzenesulfonamide] | 9.04 | 8.47 |
| NS(=O)(=O)c1ccccc1NS(=O)(=O)CCc1ccc(Cl)cc1OCC1CCOCC1 [Example 2, 2-[({2-[4-Chloro-2-(tetrahydro-2H-pyran-4-ylmethoxy)phenyl]ethyl}sulfonyl)amino]benzenesulfonamide] | 7.60 | 8.46 |
